Laboratory results taken from paper PMC8962522, “Direct interaction of TrkA/CD44v3 is essential for NGF-promoted aggressiveness of breast cancer cells” (Journal of Experimental & Clinical Cancer Research : CR, 2022).
“Also recorded” adds a separate entry of the source.

Test system: RhoA in MDA-MB-231 cells
Assay: AB-FRET RhoA activation, MDA-MB-231 with RhoA biosensor
Assay type: cell-based
Method: MDA-MB-231 native or KD cells were seeded (5000 cells/well; ovn, 37 °C) in a chambered coverglass system (Lab-Tek®) coated with a type I collagen matrix (100 μg/mL; Corning). These cells were transfected using the pBabe-puro-RhoA plasmid (0.15 μg; Addgene plasmid #12602) diluted in a buffer solution (JetOPTIMUS® buffer) and a transfection agent (TA; 10 min). The mixture was incorporated into the culture medium (4 h; 37 °C). Two to three hours before image acquisition, the cells expressing the RhoA biosensor were starved in fresh EMEM containing 0.1% FBS and no phenol red. […]
To further elucidate the mechanism of action of CD44v3 mimetic peptide 4, we studied its effect on the TrkA signaling pathway. […] Additionally, to confirm that this effect was independent of TrkA phosphorylation, we measured RhoA activation in MDA-MB-231 cells expressing dead TrkA kinase, which cannot be phosphorylated (Fig. 5D). […]
Fig. 5 CD44v3 is implicated in the phospho-TrkA-independent activation of RhoA GTPase. Phosphorylation of TrkA was measured in the presence of a scramble peptide or CD44v3 mimetic peptide 4 (P4) in the presence or absence of NGF (A). […] Phosphorylation of TrkA and downstream Akt in wild-type MDA-MB-231 and MDA-MB-231 cells expressing kinase-dead TrkA, as determined by western blotting (D). […]

Sequence: IDDDEDFISST [Peptide 4, mimetic peptide 4 (…) corresponding to the C-terminal region of CD44v3]
- Mean donor peak (AB-FRET, RhoA activation), with NGF: 1.23
- NGF-induced FRET signal (RhoA activity), in words (statement: NGF increased the signal with scramble peptide, not with peptide 4, listed as CD44v3 mimetic peptide 4): NGF increased the FRET signal in the presence of the scramble peptide but not with CD44v3 mimetic peptide 4; also recorded: inhibits TrkA phosphorylation-independent RhoA activation induced by NGF
